Literature values in patent US20180256623A1, “COMPOSITIONS AND METHOD FOR REGULATING ADIPOSE TISSUE LIPOLYSIS, INSULIN-RESISTANCE, AND HYPERGLYCEMIA” (University of Virginia Patent Foundation, priority 2015, published 2018).
Read-outs that look alike come from different tables or passages of the source.

What was measured:
HSL = molecular target: T1, HSL (Homo sapiens, UniProt Q05469); conditions: means of three experiments, cited from earlier work
T1 sequence (Q05469 1-1076): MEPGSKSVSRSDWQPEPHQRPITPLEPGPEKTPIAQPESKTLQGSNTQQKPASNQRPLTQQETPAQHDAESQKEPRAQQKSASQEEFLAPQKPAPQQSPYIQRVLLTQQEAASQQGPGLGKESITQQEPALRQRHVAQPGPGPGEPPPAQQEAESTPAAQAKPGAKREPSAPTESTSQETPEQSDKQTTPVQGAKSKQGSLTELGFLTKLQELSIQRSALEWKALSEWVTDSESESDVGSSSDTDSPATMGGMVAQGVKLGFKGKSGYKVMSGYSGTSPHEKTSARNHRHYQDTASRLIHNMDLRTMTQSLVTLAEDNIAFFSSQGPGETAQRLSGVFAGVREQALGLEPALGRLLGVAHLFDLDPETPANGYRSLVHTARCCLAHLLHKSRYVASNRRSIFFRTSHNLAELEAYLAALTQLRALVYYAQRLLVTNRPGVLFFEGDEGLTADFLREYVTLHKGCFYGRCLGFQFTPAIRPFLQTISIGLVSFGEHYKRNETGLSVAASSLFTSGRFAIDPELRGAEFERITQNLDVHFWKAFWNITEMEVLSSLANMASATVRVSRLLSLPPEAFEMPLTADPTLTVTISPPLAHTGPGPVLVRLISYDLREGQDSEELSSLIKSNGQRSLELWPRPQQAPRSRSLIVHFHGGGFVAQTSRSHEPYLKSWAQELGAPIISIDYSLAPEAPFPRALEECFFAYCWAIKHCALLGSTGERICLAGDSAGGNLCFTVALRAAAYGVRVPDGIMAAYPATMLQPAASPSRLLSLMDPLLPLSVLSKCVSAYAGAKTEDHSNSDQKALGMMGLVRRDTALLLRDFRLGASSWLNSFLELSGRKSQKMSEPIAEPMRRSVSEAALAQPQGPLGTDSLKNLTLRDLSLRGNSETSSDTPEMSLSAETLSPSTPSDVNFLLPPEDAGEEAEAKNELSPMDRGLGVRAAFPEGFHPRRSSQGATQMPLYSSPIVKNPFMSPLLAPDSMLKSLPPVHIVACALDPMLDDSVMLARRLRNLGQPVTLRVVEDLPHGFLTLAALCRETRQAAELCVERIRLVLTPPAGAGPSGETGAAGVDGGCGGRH

3T3-L1 = conditions: means of three experiments, cited from earlier work
[1] = piperidine derivatives, Na = not active
[2] = Table 1, 4-substituted 5-(2H)-isoxazolones
[3] = Table 2, acyclic ureas, Na = not active
[4] = Table 3, cyclic amine-derived ureas, Na = not active

Structure (SMILES): Cc1c(C(C)C)c(=O)on1C(=O)N1CCC(O)(c2ccccc2)CC1 [Compound 92]
- IC50 (HSL; [1]): > 1000 nM
- IC50 (3T3-L1; [1]): > 1000 nM

Structure (SMILES): Cc1c(CC(C)C)c(=O)on1C(=O)N1CCCCC1 [Compound 9]
- IC50 (3T3-L1; [2]): 32 nM

Structure (SMILES): Cc1c(C(C)C)c(=O)on1C(=O)N(C)Cc1ccco1 [Compound 30]
- IC50 (3T3-L1; [3]): 9 nM

Structure (SMILES): Cc1c(C(C)C)c(=O)on1C(=O)N1CCCC1 [Compound 41]
- IC50 (3T3-L1; [4]): 28 nM

Structure (SMILES): Cc1c(C(C)C)c(=O)on1C(=O)N1CCC[C@H](C)C1 [Compound 59]
- IC50 (3T3-L1; [1]): 28 nM

Structure (SMILES): Cc1c(C(C)C)c(=O)on1C(=O)N1CCNCC1 [Compound 46]
- IC50 (HSL; [4]): > 1000 nM

Structure (SMILES): Cc1c(C(C)C)c(=O)on1C(=O)N1CCN(C)CC1 [Compound 47]
- IC50 (3T3-L1; [4]): > 1000 nM

Structure (SMILES): Cc1c(Sc2ccc(Cl)cc2)c(=O)on1C(=O)N1CCCCC1 [Compound 1]
- IC50 (3T3-L1; [2]): 135 nM

Structure (SMILES): Cc1c(C(C)C)c(=O)on1C(=O)N1CCCCC1C (centres unmarked) [Compound 57]
- IC50 (3T3-L1; [1]): 400 nM

Structure (SMILES): CCc1c(C)n(C(=O)N2CCCCC2)oc1=O [Compound 6]
- IC50 (3T3-L1; [2]): 325 nM

Structure (SMILES): Cc1c(C(C)(C)C)c(=O)on1C(=O)N1CCCCC1 [Compound 10]
- IC50 (3T3-L1; [2]): 90 nM

Structure (SMILES): Cc1c(C(C)C)c(=O)on1C(=O)N1CCCCCC1 [Compound 55]
- IC50 (3T3-L1; [4]): 215 nM

Structure (SMILES): Cc1c(C(C)C)c(=O)on1C(=O)N(C)CCc1ccccc1 [Compound 33]
- IC50 (3T3-L1; [3]): 300 nM

Structure (SMILES): Cc1c(C(C)C)c(=O)on1C(=O)N1CCC(C)CC1 [Compound 63]
- IC50 (3T3-L1; [1]): 40 nM

Structure (SMILES): Cc1c(C2CCCCC2)c(=O)on1C(=O)N1CCCCC1 [Compound 12]
- IC50 (3T3-L1; [2]): 27 nM

Structure (SMILES): COCCc1c(C)n(C(=O)N2CCC(c3cccc(C)c3)CC2)oc1=O [Compound 76]
- IC50 (3T3-L1; [1]): 4 nM

Structure (SMILES): CCOCCc1c(C)n(C(=O)N2CCC(C)CC2)oc1=O [Compound 67]
- IC50 (3T3-L1; [1]): 20 nM

Structure (SMILES): Cc1c(C(C)C)c(=O)on1C(=O)N1CCC(C#N)(c2ccccc2)CC1 [Compound 91]
- IC50 (HSL; [1]): > 1000 nM

Structure (SMILES): Cc1c(-c2ccccc2)c(=O)on1C(=O)N1CCCCC1 [Compound 19]
- IC50 (HSL; [2]): 17 nM
- IC50 (3T3-L1; [2]): 150 nM

Structure (SMILES): Cc1c(C2CCSCC2)c(=O)on1C(=O)N1CCC(C)CC1 [Compound 68]
- IC50 (3T3-L1; [1]): 24 nM

Structure (SMILES): CCCCc1c(C)n(C(=O)N2CCC(C)CC2)oc1=O [Compound 64]
- IC50 (3T3-L1; [1]): 10 nM

Structure (SMILES): Cc1c(C(C)C)c(=O)on1C(=O)N(C)Cc1ccc(F)cc1 [Compound 28]
- IC50 (3T3-L1; [3]): 1000 nM

Structure (SMILES): Cc1c(C(C)C)c(=O)on1C(=O)N1CCN(Cc2ccccc2)CC1 [Compound 48]
- IC50 (3T3-L1; [4]): 56 nM

Structure (SMILES): Cc1c(C(C)C)c(=O)on1C(=O)N1CCC(C(=O)N(C)C)CC1 [Compound 84]
- IC50 (HSL; [1]): > 1000 nM

Structure (SMILES): Cc1c(C(C)C)c(=O)on1C(=O)N1CCc2ccccc21 [Compound 44]
- IC50 (HSL; [4]): > 1000 nM

Structure (SMILES): Cc1c(C(C)C)c(=O)on1C(=O)N1CCC(c2ccccc2)CC1 [Compound 70]
- IC50 (3T3-L1; [1]): 33 nM

Structure (SMILES): Cc1c(C(C)C)c(=O)on1C(=O)N1CCCC(CO)C1 (centres unmarked) [Compound 60]
- IC50 (3T3-L1; [1]): 800 nM

Structure (SMILES): Cc1c(C(C)C)c(=O)on1C(=O)N(C)Cc1ccccc1 [Compound 25]
- IC50 (3T3-L1; [3]): 67 nM

Structure (SMILES): Cc1c(CCOc2ccccc2)c(=O)on1C(=O)N1CCCCC1 [Compound 17]
- IC50 (3T3-L1; [2]): 2 nM

Structure (SMILES): Cc1c(C2CCCCC2)c(=O)on1C(=O)N1CCC(C)CC1 [Compound 66]
- IC50 (3T3-L1; [1]): 20 nM

Structure (SMILES): Cc1c(C2CCSCC2)c(=O)on1C(=O)N1CCCCC1 [Compound 14]
- IC50 (3T3-L1; [2]): 98 nM

Structure (SMILES): CCOC(=O)C1CCCN(C(=O)n2oc(=O)c(C(C)C)c2C)C1 (centres unmarked) [Compound 62]
- IC50 (3T3-L1; [1]): 170 nM

Structure (SMILES): Cc1c(C(C)C)c(=O)on1C(=O)N1CC(C)CC(C)C1 (centres unmarked) [Compound 90]
- IC50 (3T3-L1; [1]): 140 nM

Structure (SMILES): COCCc1c(C)n(C(=O)N2CCCCC2)oc1=O [Compound 16]
- IC50 (3T3-L1; [2]): 180 nM

Structure (SMILES): Cc1c(C(C)C)c(=O)on1C(=O)N1CCC(=O)CC1 [Compound 83]
- IC50 (3T3-L1; [1]): 150 nM

Structure (SMILES): Cc1c(Sc2ccccc2)c(=O)on1C(=O)N1CCCCC1 [Compound 3]
- IC50 (3T3-L1; [2]): 190 nM

Structure (SMILES): Cc1c(C2CCCC2)c(=O)on1C(=O)N1CCC(c2ccccc2)CC1 [Compound 72]
- IC50 (3T3-L1; [1]): 8 nM

Structure (SMILES): Cc1c(C(C)C)c(=O)on1C(=O)N1CCCCC1 [Compound 8]
- IC50 (3T3-L1; [2]): 75 nM
- IC50 (3T3-L1; [4]): 75 nM
- IC50 (3T3-L1; [1]): 75 nM

Structure (SMILES): COCCc1c(C)n(C(=O)N2CCC(c3ccccc3)CC2)oc1=O [Compound 73]
- IC50 (3T3-L1; [1]): 5 nM

Structure (SMILES): COCCc1c(C)n(C(=O)N2CCC(c3cccc(F)c3)CC2)oc1=O [Compound 75]
- IC50 (3T3-L1; [1]): 0.2 nM

Structure (SMILES): Cc1c(C(C)C)c(=O)on1C(=O)N1CCSCC1 [Compound 54]
- IC50 (3T3-L1; [4]): 290 nM

Structure (SMILES): Cc1c(C2CCSCC2)c(=O)on1C(=O)N1CCCCC1 [Compound 15]
- IC50 (HSL; [2]): 55 nM
- IC50 (3T3-L1; [2]): 380 nM

Structure (SMILES): Cc1c(C(C)C)c(=O)on1C(=O)N1CC(C)CCC1C (centres unmarked) [Compound 88]
- IC50 (3T3-L1; [1]): > 1000 nM

Structure (SMILES): Cc1c(C(C)C)c(=O)on1C(=O)NC(C)(C)C [Compound 20]
- IC50 (HSL; [3]): > 1000 nM

Structure (SMILES): Cc1c(C(C)C)c(=O)on1C(=O)N(C)C1CCCCC1 [Compound 24]
- IC50 (3T3-L1; [3]): > 1000 nM

Structure (SMILES): Cc1c(C(C)C)c(=O)on1C(=O)N1CCC(c2cccc(F)c2)CC1 [Compound 74]
- IC50 (3T3-L1; [1]): 4 nM

Structure (SMILES): Cc1c(C(C)C)c(=O)on1C(=O)N1CC=CC1 [Compound 43]
- IC50 (3T3-L1; [4]): 120 nM

Structure (SMILES): Cc1c(Cc2ccccc2)c(=O)on1C(=O)N1CCCCC1 [Compound 4]
- IC50 (3T3-L1; [2]): 90 nM

Structure (SMILES): Cc1c(C2CCCC2)c(=O)on1C(=O)N1CCCCC1 [Compound 11]
- IC50 (3T3-L1; [2]): 22 nM

Structure (SMILES): Cc1c(C2CCOCC2)c(=O)on1C(=O)N1CCCCC1 [Compound 13]
- IC50 (3T3-L1; [2]): 200 nM

Structure (SMILES): Cc1c(C(C)C)c(=O)on1C(=O)N(C)c1ccc(Cl)cc1 [Compound 37]
- IC50 (3T3-L1; [3]): > 1000 nM

Structure (SMILES): Cc1c(C(C)C)c(=O)on1C(=O)N(C)Cc1ccccc1F [Compound 26]
- IC50 (3T3-L1; [3]): 10 nM

Structure (SMILES): Cc1c(C(C)C)c(=O)on1C(=O)N1CCN(c2ccccc2)CC1 [Compound 49]
- IC50 (3T3-L1; [4]): 27 nM

Structure (SMILES): Cc1c(C(C)C)c(=O)on1C(=O)Nc1ccccc1 [Compound 21]
- IC50 (HSL; [3]): > 1000 nM

Structure (SMILES): Cc1nnc(C2CCN(C(=O)n3oc(=O)c(C(C)C)c3C)CC2)o1 [Compound 86]
- IC50 (HSL; [1]): > 1000 nM

Structure (SMILES): CCN(CC)C(=O)n1oc(=O)c(C(C)C)c1C [Compound 39]
- IC50 (3T3-L1; [3]): 600 nM

Structure (SMILES): Cc1c(C)n(C(=O)N2CCCCC2)oc1=O [Compound 5]
- IC50 (3T3-L1; [2]): 655 nM

Structure (SMILES): Cc1ccc(C2CCN(C(=O)n3oc(=O)c(C(C)C)c3C)CC2)cc1 [Compound 77]
- IC50 (3T3-L1; [1]): 246 nM

Structure (SMILES): Cc1c(C(C)C)c(=O)on1C(=O)N1CCC[C@@H](C)C1 [Compound 58]
- IC50 (3T3-L1; [1]): 187 nM

Structure (SMILES): Cc1c(C(C)C)c(=O)on1C(=O)N1CCOCC1 [Compound 53]
- IC50 (3T3-L1; [4]): > 1000 nM
